Patent US20240358015A1, “HERBICIDAL COMPOSITIONS” (Agrematch Ltd., priority 2021, published 2024)

Columns and labels:
Type in all cases: in vivo
Amaranthus palmeri [1] = assay: Growth-chamber post-emergence herbicidal assay (Example 2)
Procedure: (§1) Herbicidal activity was determined by post-emergence application on 8-day old plants (weeds) of the Amaranthus palmeri and Setaria viridis species that were grown at 16 hours/8 hours day/night cycles at 30° C./25° C., respectively. Leaf stage was typically 4-6 for A. palmeri and 3-4 for S. viridis.
(§2) In each treatment, 2-3 pots, each containing about 5 plants each (for Setaria viridis), and one 9-pack, containing about 9 plants (for Amaranthus palmeri), were sprayed using a VL-SET Paasche Airbrush with 0.3-1.5 ml solution containing 0.125-2 mg/ml of a tested compound, which is equivalent to about 125-2000 g/ha.
(§3) Damage assessment: Herbicidal activity was assessed and scored 3-4 days after application by visual inspection of the plants in comparison to plants treated with the formulation alone (with no active ingredient) as control. Activity score is in the range of 0 to 100, where 0 represents no herbicidal activity like control plants and 100 represents the maximal herbicidal activity (i.e., total death of the plant).
Formulation design: Compounds were tested on A. Palmeri in various formulations, and in varying concentrations for each of the tested formulations, in order to determine optimal conditions for its application and performance. Activity scores were determined as described hereinabove. Solubility scores were determined by visual inspection on a scale of 1-10, with 10 representing complete solubilization and 1 represents nullified solubilization.
Each of the obtained solution was then mixed with different adjuvants and applied at a rate equivalent to 500 g/ha for A. palmeri and 1000 g/ha for S. viridis. Herbicidal activity scores 3-4 days after application are presented Table 3 below.

Setaria viridis [2] = assay: as above
Procedure: as §1, §2, §3
Herbicidal activity scores 3-4 days after application are presented Table 3 below.

Amaranthus palmeri [3] = assay: Growth-chamber post-emergence assay (Example 8)
Procedure: as §1, with “activity of Compounds 1B, 3, 4, 5 and 6” for “activity”
(§4) In each treatment, between 1 to 4 pots (8×12 cm), containing about 6 Amaranthus palmeri or Setaria viridis plants, were sprayed using a VL-SET Paasche Airbrush with a 1 ml-solution containing 0.250-2 mg/ml of the tested compound, which is equivalent to about 250-2000 g/ha.
as §3

Setaria viridis [4] = assay: Growth-chamber post-emergence assay (Example 8)
Procedure: as §1, with “activity of Compounds 1B, 3, 4, 5 and 6” for “activity”
as §4, §3

[5] = 2000 g/ha, 8.6% Acetophenone, 2% TWEEN 20, 1.4% NMP, 0.5% ECO, 0.5% Ca-LAS, 0.05% Break-Thru
[6] = 1000 g/ha, 8.6% Acetophenone, 1% TWEEN 80, 1.4% NMP, 0.5% ECO, 0.5% Ca-LAS, 0.05% Break-Thru
[7] = 1000 g/ha, 2% MIPA, 2% DMSO, 1% TWEEN20, 2% HASTEN
[8] = 2000 g/ha, 2% MIPA, 1% TWEEN20, 2% HASTEN
[9] = 250 g/ha, 14% Acetone, 2% MIPA, 5% DMSO, 1% TWEEN20, 2% HASTEN
[10] = 500 g/ha, 18.5% Acetone, 2% MIPA, 5% DMSO, 1% TWEEN20, 2% HASTEN
[11] = 2000 g/ha, 2% MIPA, 2% DMSO, 1% TWEEN20, 2% HASTEN
[12] = 250 g/ha, 10% Acetone, 1.85% MIPA, 5% DMSO, 0.23% Genapol, 1.85% HASTEN
[13] = 500 g/ha, 10% Acetone, 1.7% MIPA, 5% DMSO, 0.85% TWEEN20, 1.7% HASTEN
[14] = 250 g/ha, 2% MIPA, 2% DMSO, 0.25% Genapol, 2% HASTEN
[15] = 500 g/ha, 2% MIPA, 2% DMSO, 0.25% Genapol, 2% HASTEN
[16] = 1000 g/ha, 2% MIPA, 2% DMSO, 0.25% Genapol, 2% HASTEN, 3-4 days after application, scale 0-100
[17] = 330 g/ha, 5% Acetone, 2% MIPA, 2.5% DMSO, 0.25% Genapol, 2% HASTEN
[18] = 330 g/ha, 10% Acetone, 0.8% MIPA, 5% DMSO, 0.25% Genapol, 2% HASTEN
[19] = 330 g/ha, 10% Acetone, 2% MIPA, 5% DMSO, 0.25% Genapol, 2% HASTEN

Nc1ccc(O)c2c1C(=O)c1ccccc1C2=O [Compound 7]
Activity Score (Amaranthus palmeri [1]; [5]): 40

O=C(O)c1ccc2c(c1)C(=O)c1ccccc1C2=O [Compound 2]
Activity Score (Amaranthus palmeri [1]; 500 g/ha, 4.3% Acetophenone, 1% TWEEN 80, 0.7% NMP, 0.25% ECO, 0.25% Ca-LAS, 0.05% Break-Thru): 100
Activity Score (Amaranthus palmeri [1]; [6]): 95
Activity Score (Amaranthus palmeri [1]; 2000 g/ha, 2% DMSO, 1% TWEEN 80, 0.05M Tris buffer pH 8, 0.05% Break-Thru): 100
Activity Score (Setaria viridis [2]; 1500 g/ha, 2% DMSO, 1% TWEEN 80, 0.05M Tris buffer pH 8, 0.05% Break-Thru): 40

Cc1cc(O)c2c(c1)C(=O)c1cc(O)cc(O)c1C2=O [Compound 5]
Activity Score (Amaranthus palmeri [1]; [5]): 70
Herbicidal activity score (Amaranthus palmeri [3]; [7]): 95
Herbicidal activity score (Amaranthus palmeri [3]; [8]): 100
Herbicidal activity score (Setaria viridis [4]; [7]): 75
Herbicidal activity score (Setaria viridis [4]; [8]): 90

O=C1c2ccccc2C(=O)c2c(O)cccc21 [Compound 6]
Activity Score (Amaranthus palmeri [1]; 1500 g/ha, 8.6% Acetophenone, 1% TWEEN 80, 1.4% NMP, 0.5% ECO, 0.5% Ca-LAS, 0.05% Break-Thru): 75
Activity Score (Setaria viridis [2]; [6]): 80
Herbicidal activity score (Amaranthus palmeri [3]; [9]): 10
Herbicidal activity score (Amaranthus palmeri [3]; [10]): 70
Herbicidal activity score (Amaranthus palmeri [3]; [7]): 70
Herbicidal activity score (Amaranthus palmeri [3]; [11]): 90
Herbicidal activity score (Setaria viridis [4]; [9]): 90
Herbicidal activity score (Setaria viridis [4]; [10]): 40
Herbicidal activity score (Setaria viridis [4]; [7]): 90
Herbicidal activity score (Setaria viridis [4]; [11]): 95

COC(=O)c1ccc2c(c1O)C(=O)c1ccccc1C2=O [Compound 3]
Activity Score (Amaranthus palmeri [1]; [5]): 80
Activity Score (Setaria viridis [2]; [5]): 10
Herbicidal activity score (Amaranthus palmeri [3]; [12]): 91
Herbicidal activity score (Amaranthus palmeri [3]; [13]): 99
Herbicidal activity score (Amaranthus palmeri [3]; [7]): 95
Herbicidal activity score (Amaranthus palmeri [3]; [11]): 95
Herbicidal activity score (Setaria viridis [4]; [12]): 63
Herbicidal activity score (Setaria viridis [4]; [13]): 88
Herbicidal activity score (Setaria viridis [4]; [7]): 95
Herbicidal activity score (Setaria viridis [4]; [11]): 100

O=C(O)c1cc(O)c2c(c1)C(=O)c1cccc(O[C@@H]3O[C@H](CO)[C@@H](O)[C@H](O)[C@H]3O)c1C2=O [Compound 1B, Rhein 8-glucoside]
Activity Score (Amaranthus palmeri [1]; 500 g/ha, 2% TWEEN 20, 0.05M Tris buffer pH 8.3, 0.05% Break-Thru): 30
Activity Score (Amaranthus palmeri [1]; 750* g/ha (rate adjusted to reflect that of the Rhein actual active ingredient), 2% TWEEN 20, 5.7 mM MIPA, 0.05% Break-Thru): 70
Activity Score (Setaria viridis [2]; 750* g/ha (rate adjusted to reflect that of the Rhein actual active ingredient), 1% Eta-70, 5.7 mM MIPA, 0.05% Break-Thru): 50
Herbicidal activity score (Amaranthus palmeri [3]; [14]): 85
Herbicidal activity score (Amaranthus palmeri [3]; [15]): 100
Herbicidal activity score (Amaranthus palmeri [3]; [16]): 100
Herbicidal activity score (Setaria viridis [4]; [14]): 70
Herbicidal activity score (Setaria viridis [4]; [15]): 95
Herbicidal activity score (Setaria viridis [4]; [16]): 90

O=C1c2ccccc2C(=O)c2cc(CO)ccc21 [Compound 4]
Activity Score (Amaranthus palmeri [1]; [6]): 95
Activity Score (Amaranthus palmeri [1]; 1500 g/ha, 8.6% Acetophenone, 4% TWEEN 20, 1.4% NMP, 0.5% ECO, 0.5% Ca-LAS, 0.05% Break-Thru): 95
Activity Score (Setaria viridis [2]; 1500 g/ha, 6% DMSO, 0.05% Break-Thru): 40
Herbicidal activity score (Amaranthus palmeri [3]; [12]): 85
Herbicidal activity score (Amaranthus palmeri [3]; [9]): 90
Herbicidal activity score (Amaranthus palmeri [3]; [17]): 88
Herbicidal activity score (Amaranthus palmeri [3]; [18]): 93
Herbicidal activity score (Amaranthus palmeri [3]; [19]): 80
Herbicidal activity score (Amaranthus palmeri [3]; [10]): 95
Herbicidal activity score (Setaria viridis [4]; [12]): 45
Herbicidal activity score (Setaria viridis [4]; [9]): 90
Herbicidal activity score (Setaria viridis [4]; [17]): 80
Herbicidal activity score (Setaria viridis [4]; [18]): 75
Herbicidal activity score (Setaria viridis [4]; [19]): 88
Herbicidal activity score (Setaria viridis [4]; [10]): 50
